Laboratory results from patent publication US7008905B2, “Method of combating undesired plant growth on cereals” (BASF Aktiengesellschaft, priority 2000, dated 2006).

Assays:
Format in all cases: in vivo
[1] = test system: Alopecurus myosuroides; experiment: Pre-emergence test, weed control; conditions: 3 weeks after treatment, rating 0-100 (100=death), Table 1
How it was run: (§1)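 Test compounds in acetone with 0.4% TRITON X-155, diluted with water, were sprayed onto freshly sown horticultural loam at 15, 30, 60, 120 or 240 g a.i./ha in 900 L/ha. Visual assessment three weeks after spraying, on a 0–100 scale (0 = as untreated control, 100 = death).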

[2] = test system: Apera spica-venti; experiment: Pre-emergence test, weed control; conditions: 3 weeks after treatment, rating 0-100 (100=death), Table 1
How it was run: as §1

[3] = test system: Galium aparine; experiment: Pre-emergence test, weed control; conditions: 3 weeks after treatment, rating 0-100 (100=death), Table 1
How it was run: as §1

[4] = test system: Lamium purpureum; experiment: Pre-emergence test, weed control; conditions: 3 weeks after treatment, rating 0-100 (100=death), Table 1
How it was run: as §1

[5] = test system: Lolium perenne; experiment: Pre-emergence test, weed control; conditions: 3 weeks after treatment, rating 0-100 (100=death), Table 1
How it was run: as §1

[6] = test system: Matricaria inodora; experiment: Pre-emergence test, weed control; conditions: 3 weeks after treatment, rating 0-100 (100=death), Table 1
How it was run: as §1

[7] = test system: Poa annua; experiment: Pre-emergence test, weed control; conditions: 3 weeks after treatment, rating 0-100 (100=death), Table 1
How it was run: as §1

[8] = test system: Polygonum convolvulus; experiment: Pre-emergence test, weed control; conditions: 3 weeks after treatment, rating 0-100 (100=death), Table 1
How it was run: as §1

[9] = test system: Setaria viridis; experiment: Pre-emergence test, weed control; conditions: 3 weeks after treatment, rating 0-100 (100=death), Table 1
How it was run: as §1

[10] = test system: Stellaria media; experiment: Pre-emergence test, weed control; conditions: 3 weeks after treatment, rating 0-100 (100=death), Table 1
How it was run: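 Scores from 0 (growth like untreated control) to 100 (death) were assigned by eye three weeks post-spray, with 10 units approximating a 10% change in effect. Treatment was applied to freshly sown loam at 15 to 240 g active material per hectare.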

[11] = test system: Veronica persica; experiment: Pre-emergence test, weed control; conditions: 3 weeks after treatment, rating 0-100 (100=death), Table 1
How it was run: as §1

[12] = test system: HORVW; experiment: Pre-emergence test, selectivity; conditions: 3 weeks after treatment, rating 0-100 (100=death), Table 2
How it was run: as §1

[13] = test system: Hordeum vulgare variety “Mammut”; experiment: Pre-emergence test, selectivity; conditions: 3 weeks after treatment, rating 0-100 (100=death), Table 2
How it was run: as §1

[14] = test system: Triticum aestivum variety “Kanzler”; experiment: Pre-emergence test, selectivity; conditions: 3 weeks after treatment, rating 0-100 (100=death), Table 2
How it was run: as §1

[15] = test system: Triticum aestivum variety “Monopol”; experiment: Pre-emergence test, selectivity; conditions: 3 weeks after treatment, rating 0-100 (100=death), Table 2
How it was run: as §1

[16] = test system: Galium aparine; experiment: Post-emergence test, weed control; conditions: 2–4 weeks after treatment, rating 0-100 (100=death), Table 5
Method: (§2) These acetone solutions are diluted with water and the resulting formulations applied at dosage levels equivalent of about 0.030 to 0.240 kg per hectare of test compound per pot. After spraying the plants are placed an greenhouse benches and are cared for in the usual manner, commensurate with conventional greenhouse practices. From 2 to 4 weeks after treatment, the seedling plants are examined and rated according to the rating system provided above. A rating 0 indicates growth as untreated control, a rating 100 indicates death.

[17] = test system: Polygonum convolvulus; experiment: Post-emergence test, weed control; conditions: 2–4 weeks after treatment, rating 0-100 (100=death), Table 5
Method: as §2

[18] = test system: Setaria viridis; experiment: Post-emergence test, weed control; conditions: 2–4 weeks after treatment, rating 0-100 (100=death), Table 5
Method: as §2

[19] = test system: VIOAR; experiment: Post-emergence test, weed control; conditions: 2–4 weeks after treatment, rating 0-100 (100=death), Table 5
Method: as §2

[20] = test system: wheat; experiment: Post-emergence test, tolerance in wheat; conditions: in vivo
Method: as §2

For `CCc1cc(Oc2cccc(C(F)(F)F)c2)nc(-c2ccc(C(F)(F)F)cc2)n1` [REF-3], the “ALOMY weed control rating” value ([1]; 0.015 kg/ha) was 55, the “ALOMY weed control rating” value ([1]; 0.030 kg/ha) was 98 and the “ALOMY weed control rating” value ([1]; 0.060 kg/ha) was 98. For the same compound, the “ALOMY weed control rating” value ([1]; 0.120 kg/ha) was 100, the “ALOMY weed control rating” value ([1]; 0.240 kg/ha) was 100 and the “APESV weed control rating” value ([2]; 0.015 kg/ha) was 100. For the same compound, the “APESV weed control rating” value ([2]; 0.030 kg/ha) was 100, the “APESV weed control rating” value ([2]; 0.060 kg/ha) was 100 and the “APESV weed control rating” value ([2]; 0.120 kg/ha) was 100. For the same compound, the “APESV weed control rating” value ([2]; 0.240 kg/ha) was 100, the “GALAP weed control rating” value ([3]; 0.060 kg/ha) was 50 and the “GALAP weed control rating” value ([3]; 0.120 kg/ha) was 85. For the same compound, the “GALAP weed control rating” value ([3]; 0.240 kg/ha) was 97, the “LAMPU weed control rating” value ([4]; 0.015 kg/ha) was 100 and the “LAMPU weed control rating” value ([4]; 0.030 kg/ha) was 100. For the same compound, the “LAMPU weed control rating” value ([4]; 0.060 kg/ha) was 100, the “LAMPU weed control rating” value ([4]; 0.120 kg/ha) was 100 and the “LAMPU weed control rating” value ([4]; 0.240 kg/ha) was 100. The “LOLPE weed control rating” value ([5]; 0.015 kg/ha) was 90, the “LOLPE weed control rating” value ([5]; 0.030 kg/ha) was 98 and the “LOLPE weed control rating” value ([5]; 0.060 kg/ha) was 99. For the same compound, the “LOLPE weed control rating” value ([5]; 0.120 kg/ha) was 99, the “LOLPE weed control rating” value ([5]; 0.240 kg/ha) was 100 and the “MATIN weed control rating” value ([6]; 0.015 kg/ha) was 99. The “MATIN weed control rating” value ([6]; 0.030 kg/ha) was 99, the “MATIN weed control rating” value ([6]; 0.060 kg/ha) was 99 and the “MATIN weed control rating” value ([6]; 0.120 kg/ha) was 100. For the same compound, the “MATIN weed control rating” value ([6]; 0.240 kg/ha) was 100, the “POAAN weed control rating” value ([7]; 0.015 kg/ha) was 100 and the “POAAN weed control rating” value ([7]; 0.030 kg/ha) was 100. For the same compound, the “POAAN weed control rating” value ([7]; 0.060 kg/ha) was 100, the “POAAN weed control rating” value ([7]; 0.120 kg/ha) was 100 and the “POAAN weed control rating” value ([7]; 0.240 kg/ha) was 100. For the same compound, the “POLCO weed control rating” value ([8]; 0.015 kg/ha) was 25, the “POLCO weed control rating” value ([8]; 0.030 kg/ha) was 70 and the “POLCO weed control rating” value ([8]; 0.060 kg/ha) was 80. For the same compound, the “POLCO weed control rating” value ([8]; 0.120 kg/ha) was 100, the “POLCO weed control rating” value ([8]; 0.240 kg/ha) was 100 and the “SETVI weed control rating” value ([9]; 0.015 kg/ha) was 100. For the same compound, the “SETVI weed control rating” value ([9]; 0.030 kg/ha) was 100, the “SETVI weed control rating” value ([9]; 0.060 kg/ha) was 100 and the “SETVI weed control rating” value ([9]; 0.120 kg/ha) was 100. The “SETVI weed control rating” value ([9]; 0.240 kg/ha) was 100, the “STEME weed control rating” value ([10]; 0.015 kg/ha) was 98 and the “STEME weed control rating” value ([10]; 0.030 kg/ha) was 100. For the same compound, the “STEME weed control rating” value ([10]; 0.060 kg/ha) was 100, the “STEME weed control rating” value ([10]; 0.120 kg/ha) was 100 and the “STEME weed control rating” value ([10]; 0.240 kg/ha) was 100. For the same compound, the “VERPE weed control rating” value ([11]; 0.015 kg/ha) was 100, the “VERPE weed control rating” value ([11]; 0.030 kg/ha) was 100 and the “VERPE weed control rating” value ([11]; 0.060 kg/ha) was 100. The “VERPE weed control rating” value ([11]; 0.120 kg/ha) was 100, the “VERPE weed control rating” value ([11]; 0.240 kg/ha) was 100 and the “HORVW rating (Selectivity)” value ([12]; 0.015 kg/ha) was 15. The “HORVW rating (Selectivity)” value ([12]; 0.030 kg/ha) was 45, the “HORVW rating (Selectivity)” value ([12]; 0.060 kg/ha) was 45 and the “HORVW rating (Selectivity)” value ([12]; 0.120 kg/ha) was 60. For the same compound, the “HORVW rating (Selectivity)” value ([12]; 0.240 kg/ha) was 60, the “HORVWM rating (Selectivity)” value ([13]; 0.015 kg/ha) was 20 and the “HORVWM rating (Selectivity)” value ([13]; 0.030 kg/ha) was 30. The “HORVWM rating (Selectivity)” value ([13]; 0.060 kg/ha) was 40, the “HORVWM rating (Selectivity)” value ([13]; 0.120 kg/ha) was 55 and the “HORVWM rating (Selectivity)” value ([13]; 0.240 kg/ha) was 55. For the same compound, the “TRZAWK rating (Selectivity)” value ([14]; 0.015 kg/ha) was 5, the “TRZAWK rating (Selectivity)” value ([14]; 0.030 kg/ha) was 8 and the “TRZAWK rating (Selectivity)” value ([14]; 0.060 kg/ha) was 8. For the same compound, the “TRZAWK rating (Selectivity)” value ([14]; 0.120 kg/ha) was 25, the “TRZAWK rating (Selectivity)” value ([14]; 0.240 kg/ha) was 40 and the “TRZAWM rating (Selectivity)” value ([15]; 0.015 kg/ha) was 3. For the same compound, the “TRZAWM rating (Selectivity)” value ([15]; 0.030 kg/ha) was 8, the “TRZAWM rating (Selectivity)” value ([15]; 0.060 kg/ha) was 10 and the “TRZAWM rating (Selectivity)” value ([15]; 0.120 kg/ha) was 35. For the same compound, the “TRZAWM rating (Selectivity)” value ([15]; 0.240 kg/ha) was 45, the “GALAP weed control rating” value ([16]; 0.030 kg/ha) was 90 and the “GALAP weed control rating” value ([16]; 0.060 kg/ha) was 90. The “GALAP weed control rating” value ([16]; 0.120 kg/ha) was 93, the “GALAP weed control rating” value ([16]; 0.240 kg/ha) was 93 and the “POLCO weed control rating” value ([17]; 0.060 kg/ha) was 35. The “POLCO weed control rating” value ([17]; 0.120 kg/ha) was 55, the “POLCO weed control rating” value ([17]; 0.240 kg/ha) was 80 and the “SETVI weed control rating” value ([18]; 0.030 kg/ha) was 95. The “SETVI weed control rating” value ([18]; 0.060 kg/ha) was 98, the “SETVI weed control rating” value ([18]; 0.120 kg/ha) was 99 and the “SETVI weed control rating” value ([18]; 0.240 kg/ha) was 100. The “VIOAR weed control rating” value ([19]; 0.030 kg/ha) was 90, the “VIOAR weed control rating” value ([19]; 0.060 kg/ha) was 90 and the “VIOAR weed control rating” value ([19]; 0.120 kg/ha) was 90. The “VIOAR weed control rating” value ([19]; 0.240 kg/ha) was 93 and the “maximum tolerated dose in wheat / dose at which sufficiently selective in wheat” value [20] was “clearly less selective in wheat than TTP”.
